# Measurements: US20240209038A1, “TARGETING PIEZO1 TO TREAT INHERITED AND AGE-RELATED MACULAR DEGENERATIONS” (priority 2021, published 2024)
# No end group written: not given here.
# Columns and labels:
# primary porcine RPE = experiment: Live imaging of calcium influx (Fluo-4 NW) in polarized primary RPE; assay type: cell-based, pig; settings: for cytosolic and nuclear calcium at baseline: RPE treated with stressor causing cholesterol and ceramide accumulation; for intracellular calcium spikes in RPE cultured on silica beads: RPE cultured on silica beads to simulate drusen
# From the text: (§1) Primary adult RPE cultures. Polarized RPE monolayers from pig eyes were generated as described (Kaur et al., 2018; Tan et al., 2016; Toops et al., 2015; Toops et al., 2014). RPE on collagen-coated transwell filters form fully polarized monolayers within two weeks, develop trans-epithelial electrical resistances (TER) of ≥400 ohm·cm^2 and express RPE differentiation markers such as apical Na^+,K^+-ATPase and intracellular RPE65 (Toops et al., 2014).
# (§2) Intrinsic stressors to activate Piezo1. RPE monolayers were treated with the bisretinoid A2E to increase cholesterol and ceramide (Kaur et al., 2018; La Cunza et al., 2020; Tan et al., 2016; Toops et al., 2015), which act as intrinsic stressors that activate Piezo1.
# Extrinsic stressors to activate Piezo1. To simulate drusen-mediated mechanical stress, cells were cultured on collagen-coated filters layered with 500 nm diameter monodisperse silica microspheres (Cospheric SiO2MS-2.0 0.507 μm) at a density of 40 beads/cm^2 in a collagen (10 μg/cm^2) matrix.
# Drugs that modulate Piezo1 activity (Xiao, 2020). Yoda1 is a small molecule gating modifier that specifically potentiates Piezo1 mechanosensitivity and slows the inactivation kinetics with EC50 of ˜10-20 μM. It interacts with the […] domains of Piezo1 and thereby increases channel opening time. […] We treated primary RPE cultures for 6 hours with 10 μM Yoda1 (Sigma SML1558) for immunostaining/immunoblotting and biochemical experiments, or with 25 μM for 1-5 minutes for live imaging experiments. RPE cultures were treated with 500 nM GsMTx-4 (Tocris 4912100U) for 6 h.
# High-speed live-cell imaging. The Nikon CSU-X1 dual camera platform spinning disk confocal microscopy system will be used for live imaging of primary RPE cultures and mouse RPE flatmounts. Images will be analyzed using Imaris (Bitplane) (Kaur et al., 2018; Tan et al., 2016; Toops et al., 2015). If necessary, Delta Vision OMX-SR (GE Healthcare Life Sciences) with 3D structured illumination microscopy (3D-SIM) and ring-TIRF capabilities at UCSF's Nikon Imaging Center will be used for super-resolution imaging.
# Live imaging of calcium influx. For live imaging of calcium influx, primary porcine RPE grown on Transwell filters±A2E or grown on silica beads, and mouse RPE flatmounts were loaded with Fluo-4 NW (Invitrogen, F36206) for 30 min according to manufacturer's protocol. Excised Transwell filters or mouse RPE flatmounts were mounted onto a Warner chamber in the presence of Fluorobrite DMEM (Gibco, A1896701) supplemented with 1% FBS (ATCC, 30-2020), 1% NEAA (Corning, 25025CI), and 4 mM L-glutamine (Gibco, 25030081) and imaged using Nikon spinning disk confocal microscope with 60× oil immersion objective (1.49 NA). To increase or inhibit Piezo1 channel activity, Yoda1 (25 μM) or GsMTx-4 (5 μM) was added prior to live imaging. Apart from these drugs, preincubation with BAPTA-AM (Thermofisher) was used to determine the Ca^2+-dependence of nuclear and cytosolic signals.
# RPE [1] = settings: cited from earlier work; for cholesterol and ceramide accumulation in RPE: Tan et al., 2016
# RPE [2] = experiment: Complement-mediated mitochondrial fragmentation in RPE (mito-RFP live imaging, A2E + 10% NHS); assay type: cell-based; settings: A2E-treated RPE exposed to 10% NHS; Simvastatin 5 μM 16 h, T0901317 1 μM 16 h, desipramine 10 μM 3 h
# Protocol: (§3) FIGS. 7A-7B. 7A, 3D reconstruction from live imaging of mitochondrial volumes in mock transfected RPE transduced with mito-RFP, treated with A2E and exposed to 10% NHS to induce complement attack. RPE were treated with Simvastatin (5 μM, 16 h), T0901317 (1 μM, 16 h) or desipramine (10 μM, 3 h) prior to imaging. […] 7B, Quantification of fragmented mitochondria per cell from images in A. Mean±SEM, ***, p<0.0001, t-test. C, H3K9me3 (red) immunostaining in retinal cryosections from Abca4−/− mice treated with vehicle or […] desipramine i.p.
# RPE [3] = experiment: Cholesterol and ceramide accumulation in the RPE; assay type: cell-based; settings: FIGS. 3A and 3B
# Protocol: as §2
# [4] = system: Abca4−/− mice RPE flatmounts; experiment: Live imaging of calcium influx (Fluo-4 NW) in mouse RPE flatmounts; assay type: cell-based; settings: preliminary live imaging
# From the text: (§4) Mice. There are no mouse models that adequately reproduce AMD phenotypes. We therefore used models that best recapitulate the phenotype of interest. We used pigmented wild-type (129S1/SvlmJ) and Abca4^−/− mice (Jackson Labs) because we and others have reported that Abca4^−/− mice RPE show an age-dependent accumulation of cholesterol and ceramide (Kaur et al., 2018; Lenis et al., 2017; Tan et al., 2016; Toops et al., 2015), which are known to prolong Piezo1 activation (Ridone et al., 2020, Shi et al., 2020).
# (§5) Live imaging of mouse RPE flatmounts. Tissue from freshly harvested eyes will be mounted onto a Warner chamber in the presence of Fluorobrite DMEM (Gibco, A1896701) supplemented with 1% FBS (ATCC, 30-2020), 1% NEAA (Corning, 25025CI), and 4 mM L-glutamine (Gibco, 25030081) and imaged immediately using a 60× oil immersion objective (1.49 NA).
# Live imaging of calcium influx. For live imaging of calcium influx, primary porcine RPE grown on Transwell filters±A2E or grown on silica beads, and mouse RPE flatmounts were loaded with Fluo-4 NW (Invitrogen, F36206) for 30 min according to manufacturer's protocol. […]
# primary polarized RPE [5] = experiment: H3K9me3 immunostaining in primary polarized RPE; assay type: cell-based, pig; settings: prolonged piezo1 activation
# Protocol: (§6) FIGS. 4A-4E. 4A, 3D reconstructions; 4B, quantitation of mitochondrial volumes from Tom20 staining in primary RPE cultures treated or not with Yoda1 and GsMTx-4. Warmer colors indicate healthy mitochondria and cooler colors indicate fragmented mitochondria. Mean±SEM; *** p<0.0001, unpaired t-test. 4C, H3K9me3 (red; merge with DAPI appears pink) immunostaining in primary RPE cultured on collagen or collagen with silica beads±GSMTx-4 (500 nM, 3 h). 4D, Actin labeling in live primary RPE cultures. Arrow heads: actin “knots” that indicate areas of actin polymerization prior to actomyosin contraction and cell extrusion. 4E, quantitation of actin staining intensity in primary RPE cultured on collagen or collagen with beads and treated with Yoda1 and/or GsMTx-4. Mean±SEM, *, p<0.05; *** p<0.001, unpaired t-test.
# as §1
# (§7) Drugs that modulate Piezo1 activity (Xiao, 2020). […]
# primary polarized RPE [6] = experiment: Mitochondrial volumes/fragmentation from Tom20 staining in primary RPE cultures; assay type: cell-based, pig
# Protocol: as §6, §1, §7
# [7] = system: polarized primary RPE cultures; experiment: Live imaging of actin dynamics (SiR-actin) in polarized primary RPE cultures; assay type: cell-based, pig
# Protocol: as §6
# Primary adult RPE cultures. Polarized RPE monolayers from pig eyes were generated as described (Kaur et al., 2018; Tan et al., 2016; Toops et al., 2015; Toops et al., 2014). RPE on collagen-coated transwell filters form fully polarized monolayers within two weeks, develop trans-epithelial electrical resistances (TER) of ≥400 ohm·cm^2 and express RPE differentiation markers such as apical Na^+,K^+-ATPase and intracellular RPE65 (Toops et al., 2014). […]
# [8] = system: Abca4−/− mice RPE flatmounts; experiment: Live imaging of actin (SiR-actin) in mouse RPE flatmounts; assay type: cell-based; settings: freshly isolated Abca4−/− mice RPE flatmounts compared to age-matched wild types
# From the text: FIGS. 5A-5C. Validation of the Abca4−/− mouse model to study the role of Piezo1 in RPE dysfunction. 5A, H3K9me3 (red) immunostaining in 8-month-old wild type and Abca4−/− mouse RPE flatmounts. 5B, reconstruction of mitochondrial volumes from Tom20 staining in wild type and Abca4−/− mouse RPE flatmounts. Warmer colors indicate healthy mitochondria and cooler colors indicate fragmented mitochondria. 5C, Live imaging of mouse RPE flatmounts with FluoNW (green) and SiR-actin (red).
# as §5
# Live imaging of actin dynamics was performed using SiR-actin (1 μM, 30 min) and FLIPPER-TR plasma membrane probe in RPE with A2E or grown on silica beads±Yoda1±GsMTx-4
# Piezo1 [9] = settings: Xiao, 2020; read-out: EC50, potentiates Piezo1 mechanosensitivity and slows the inactivation kinetics; cited from earlier work
# Piezo2 = settings: specificity for Piezo1; cited from earlier work
# Abca4−/− mice = experiment: Nuclear H3K9me3 in RPE of Abca4−/− mice after drug administration; assay type: in vivo, mouse; settings: 10 mg/kg i.p., three times/week for four weeks, compared to vehicle-treated mice
# Protocol: as §3, §4
# Antibodies. All antibodies used were validated for specificity using the relevant IgG controls, cell lysates lacking the antigen, or by blocking peptides. […]
# Piezo1 [10] = settings: Suchyna, et al. Nature 430:235-240, 2004; cited from earlier work
# Piezo1 [11] = target: Piezo1 (Mus musculus, UniProt E2JF22); settings: whole cell recordings as described in Bae et al., Biochemistry 50:6295-300, 2011; range printed with mixed units (nM to μM); read-out: Kd, reversible block of Piezo1 activation; cited from earlier work
# Piezo1 (Mus musculus, UniProt E2JF22), sequence (E2JF22 whole entry): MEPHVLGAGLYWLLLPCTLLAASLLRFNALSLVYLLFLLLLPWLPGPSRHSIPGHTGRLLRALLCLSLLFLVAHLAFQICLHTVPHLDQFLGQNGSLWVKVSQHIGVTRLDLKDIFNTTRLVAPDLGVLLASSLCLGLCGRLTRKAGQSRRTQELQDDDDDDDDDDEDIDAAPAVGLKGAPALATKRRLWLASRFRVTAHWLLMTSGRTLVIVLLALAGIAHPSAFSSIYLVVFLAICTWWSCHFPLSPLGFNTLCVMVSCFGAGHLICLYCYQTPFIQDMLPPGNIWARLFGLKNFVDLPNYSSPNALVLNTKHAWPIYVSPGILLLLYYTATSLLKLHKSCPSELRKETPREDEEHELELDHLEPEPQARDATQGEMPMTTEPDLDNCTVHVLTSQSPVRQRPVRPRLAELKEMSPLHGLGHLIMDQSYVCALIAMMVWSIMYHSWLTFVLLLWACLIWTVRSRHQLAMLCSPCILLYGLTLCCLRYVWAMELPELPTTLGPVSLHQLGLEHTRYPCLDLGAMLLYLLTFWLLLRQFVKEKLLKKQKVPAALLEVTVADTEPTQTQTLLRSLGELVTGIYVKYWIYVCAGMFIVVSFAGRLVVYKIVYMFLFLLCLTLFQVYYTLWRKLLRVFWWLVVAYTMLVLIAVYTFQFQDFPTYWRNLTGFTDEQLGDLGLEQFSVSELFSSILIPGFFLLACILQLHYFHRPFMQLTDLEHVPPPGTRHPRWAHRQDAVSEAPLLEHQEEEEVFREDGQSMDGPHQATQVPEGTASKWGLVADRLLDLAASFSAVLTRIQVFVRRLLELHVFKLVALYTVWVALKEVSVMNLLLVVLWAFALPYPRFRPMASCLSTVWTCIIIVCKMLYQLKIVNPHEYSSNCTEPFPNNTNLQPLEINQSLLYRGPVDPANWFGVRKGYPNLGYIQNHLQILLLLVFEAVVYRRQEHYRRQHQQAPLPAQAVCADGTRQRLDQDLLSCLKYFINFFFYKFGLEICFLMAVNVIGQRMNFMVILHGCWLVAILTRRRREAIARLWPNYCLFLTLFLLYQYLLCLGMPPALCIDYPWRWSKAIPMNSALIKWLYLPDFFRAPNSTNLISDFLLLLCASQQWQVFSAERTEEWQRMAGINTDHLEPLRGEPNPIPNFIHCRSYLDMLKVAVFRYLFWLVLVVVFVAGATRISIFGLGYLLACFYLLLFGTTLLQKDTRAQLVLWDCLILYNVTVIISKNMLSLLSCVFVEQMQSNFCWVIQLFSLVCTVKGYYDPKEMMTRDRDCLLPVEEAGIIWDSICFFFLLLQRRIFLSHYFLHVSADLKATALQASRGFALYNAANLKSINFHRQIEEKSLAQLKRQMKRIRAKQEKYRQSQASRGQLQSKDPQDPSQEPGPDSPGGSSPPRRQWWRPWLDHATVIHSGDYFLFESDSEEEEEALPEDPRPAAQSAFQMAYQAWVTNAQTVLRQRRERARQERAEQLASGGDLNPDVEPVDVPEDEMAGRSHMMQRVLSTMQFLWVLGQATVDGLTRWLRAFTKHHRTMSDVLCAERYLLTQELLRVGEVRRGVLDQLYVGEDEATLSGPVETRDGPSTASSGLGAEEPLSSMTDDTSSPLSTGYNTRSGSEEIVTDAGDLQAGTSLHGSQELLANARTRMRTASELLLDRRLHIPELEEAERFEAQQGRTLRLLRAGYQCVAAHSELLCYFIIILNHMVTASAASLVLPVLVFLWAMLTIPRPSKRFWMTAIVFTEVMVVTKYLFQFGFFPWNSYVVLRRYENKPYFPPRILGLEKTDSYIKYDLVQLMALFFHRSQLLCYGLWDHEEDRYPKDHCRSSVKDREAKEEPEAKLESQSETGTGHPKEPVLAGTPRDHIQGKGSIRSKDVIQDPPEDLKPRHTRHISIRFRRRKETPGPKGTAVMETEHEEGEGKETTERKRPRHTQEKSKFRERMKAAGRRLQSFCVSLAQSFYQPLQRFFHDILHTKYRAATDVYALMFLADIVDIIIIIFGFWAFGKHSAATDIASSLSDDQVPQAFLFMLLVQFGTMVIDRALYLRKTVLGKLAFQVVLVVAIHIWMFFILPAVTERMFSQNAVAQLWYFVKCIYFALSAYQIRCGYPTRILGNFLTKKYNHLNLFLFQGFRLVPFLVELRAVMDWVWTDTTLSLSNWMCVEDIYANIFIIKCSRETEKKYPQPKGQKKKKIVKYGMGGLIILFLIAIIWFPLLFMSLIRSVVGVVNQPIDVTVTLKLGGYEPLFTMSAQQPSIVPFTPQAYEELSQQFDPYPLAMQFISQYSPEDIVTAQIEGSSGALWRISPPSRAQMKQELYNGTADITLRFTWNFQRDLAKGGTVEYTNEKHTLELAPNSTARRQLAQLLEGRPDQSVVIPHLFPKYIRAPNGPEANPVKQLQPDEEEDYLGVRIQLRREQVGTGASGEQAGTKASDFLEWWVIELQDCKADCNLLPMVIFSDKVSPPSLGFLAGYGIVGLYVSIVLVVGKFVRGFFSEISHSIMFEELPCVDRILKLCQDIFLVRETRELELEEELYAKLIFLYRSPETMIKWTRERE
# Piezo1 [12] = target: T1, Piezo1 (Homo sapiens, UniProt Q92508); experiment: Piezo1 currents in whole cell-clamped primary RPE (patch-clamp/high-speed pressure clamp); assay type: cell-based; settings: depletion of membrane cholesterol
# T1 construct: Dissociated RPE cells from human donors were whole cell-clamped; endogenous in cells; host or cells: dissociated RPE cells from human donors
# T1 sequence (Q92508 whole entry): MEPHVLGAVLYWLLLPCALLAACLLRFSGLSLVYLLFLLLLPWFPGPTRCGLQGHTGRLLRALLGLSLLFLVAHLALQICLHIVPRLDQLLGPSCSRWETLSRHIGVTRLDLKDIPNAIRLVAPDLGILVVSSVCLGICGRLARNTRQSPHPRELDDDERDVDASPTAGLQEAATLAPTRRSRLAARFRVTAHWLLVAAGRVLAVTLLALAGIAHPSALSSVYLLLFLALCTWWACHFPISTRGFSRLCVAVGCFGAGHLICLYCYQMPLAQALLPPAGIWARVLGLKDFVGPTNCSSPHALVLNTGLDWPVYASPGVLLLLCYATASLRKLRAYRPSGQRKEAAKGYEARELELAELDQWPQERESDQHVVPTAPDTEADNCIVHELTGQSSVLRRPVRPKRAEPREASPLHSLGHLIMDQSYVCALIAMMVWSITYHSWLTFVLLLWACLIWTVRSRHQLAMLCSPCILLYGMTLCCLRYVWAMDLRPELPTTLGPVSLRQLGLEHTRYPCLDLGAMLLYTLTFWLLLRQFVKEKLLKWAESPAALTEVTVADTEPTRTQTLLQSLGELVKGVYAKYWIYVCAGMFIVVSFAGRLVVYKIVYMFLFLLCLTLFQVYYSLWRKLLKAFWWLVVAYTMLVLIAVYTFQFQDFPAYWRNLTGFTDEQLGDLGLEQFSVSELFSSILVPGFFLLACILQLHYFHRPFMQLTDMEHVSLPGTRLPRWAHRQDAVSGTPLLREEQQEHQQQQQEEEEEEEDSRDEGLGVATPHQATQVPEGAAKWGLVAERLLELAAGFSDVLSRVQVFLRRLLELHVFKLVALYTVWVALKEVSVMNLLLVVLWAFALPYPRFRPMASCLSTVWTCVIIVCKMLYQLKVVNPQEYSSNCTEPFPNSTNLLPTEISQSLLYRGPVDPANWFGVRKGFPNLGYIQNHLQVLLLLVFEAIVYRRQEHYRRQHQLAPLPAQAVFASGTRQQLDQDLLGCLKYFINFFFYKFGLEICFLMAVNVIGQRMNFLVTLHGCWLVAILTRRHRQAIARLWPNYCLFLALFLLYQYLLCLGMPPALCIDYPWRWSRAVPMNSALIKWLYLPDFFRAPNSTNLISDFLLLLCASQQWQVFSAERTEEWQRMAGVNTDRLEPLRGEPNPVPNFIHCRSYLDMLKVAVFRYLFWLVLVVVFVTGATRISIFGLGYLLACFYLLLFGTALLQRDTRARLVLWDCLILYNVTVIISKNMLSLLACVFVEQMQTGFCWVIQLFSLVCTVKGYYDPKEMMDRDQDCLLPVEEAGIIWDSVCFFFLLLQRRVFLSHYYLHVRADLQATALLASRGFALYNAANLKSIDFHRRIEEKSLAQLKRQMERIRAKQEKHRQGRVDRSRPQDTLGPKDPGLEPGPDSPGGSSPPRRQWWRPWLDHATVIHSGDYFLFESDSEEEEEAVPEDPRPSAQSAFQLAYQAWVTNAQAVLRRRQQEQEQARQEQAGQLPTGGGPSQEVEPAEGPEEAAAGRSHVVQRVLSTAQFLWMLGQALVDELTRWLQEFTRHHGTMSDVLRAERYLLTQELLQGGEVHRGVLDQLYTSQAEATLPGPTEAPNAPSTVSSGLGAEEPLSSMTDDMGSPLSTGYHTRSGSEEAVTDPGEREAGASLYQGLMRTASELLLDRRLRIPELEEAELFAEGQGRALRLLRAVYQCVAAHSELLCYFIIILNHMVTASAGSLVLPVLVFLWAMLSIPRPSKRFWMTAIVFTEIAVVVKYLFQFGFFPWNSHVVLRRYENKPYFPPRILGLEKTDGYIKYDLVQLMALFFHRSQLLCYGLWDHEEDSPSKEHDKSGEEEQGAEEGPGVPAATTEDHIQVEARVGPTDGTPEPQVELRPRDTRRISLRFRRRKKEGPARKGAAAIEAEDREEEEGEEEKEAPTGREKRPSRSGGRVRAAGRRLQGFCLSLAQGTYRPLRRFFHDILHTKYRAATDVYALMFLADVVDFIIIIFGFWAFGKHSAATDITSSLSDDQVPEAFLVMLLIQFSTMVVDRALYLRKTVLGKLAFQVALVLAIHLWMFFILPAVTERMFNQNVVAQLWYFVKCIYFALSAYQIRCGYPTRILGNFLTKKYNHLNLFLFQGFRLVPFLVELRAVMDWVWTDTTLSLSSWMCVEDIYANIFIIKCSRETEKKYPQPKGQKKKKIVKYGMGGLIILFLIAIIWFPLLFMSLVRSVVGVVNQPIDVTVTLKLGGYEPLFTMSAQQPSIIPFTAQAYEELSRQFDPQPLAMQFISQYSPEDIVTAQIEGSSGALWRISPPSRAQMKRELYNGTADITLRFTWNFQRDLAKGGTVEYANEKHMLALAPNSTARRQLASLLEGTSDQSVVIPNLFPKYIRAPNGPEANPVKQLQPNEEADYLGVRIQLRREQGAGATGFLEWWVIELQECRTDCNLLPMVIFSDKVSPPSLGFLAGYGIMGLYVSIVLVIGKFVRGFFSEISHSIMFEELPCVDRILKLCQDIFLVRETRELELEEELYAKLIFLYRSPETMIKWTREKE
# From the text: FIGS. 3A-3D. Cholesterol and ceramide modulate Piezo1 activation in the RPE. 3A, Stills (at 130 sec and 300 sec) from Fluo4NW live imaging (green); 3B, quantification. In the results provided in FIGS. 3A and 3B, U18 increased cholesterol and ceramide. Mean±SEM, ** p<0.005, unpaired t-test. 3C, Representative traces of whole-cell currents in primary RPE recorded in a typical patch-clamp/HSPC experiment (40 mV holding potential, 25 mm Hg pressure step for 500 mSec). Black trace—control cells; red trace—RPE treated with b-cyclodextrin to deplete membrane cholesterol. 3D, Quantification of results in C. Mean±SEM, n=4 cells.
# Electrophysiology. Dissociated RPE cells from human donors were whole cell-clamped. Steps of positive pressure (2-30 mm Hg) were applied through the patch pipette using high-speed pressure clamp (ALA Instruments) or the cells stimulated with msec indentations of a blunt pipette tip (Physik Instrumente) to evoke the mechanosensitive current. The Piezo1-dependent current was confirmed using GsMTx-4 (Lapajne et al., 2020).
# [13] = in vitro and in vivo (Kaur et al., 2018; Tan et al., 2016; Toops et al., 2015)
molecule,measurement,setting,value
CC1=C(/C=C/C(C)=C/C=C/C(C)=C/c2cc(/C=C/C=C(C)/C=C/C3=C(C)CCCC3(C)C)cc[n+]2CCO)C(C)(C)CCC1 [A2E],cytosolic and nuclear calcium at baseline,primary porcine RPE,prolonged cytosolic and nuclear calcium even at baseline
same,cholesterol and ceramide accumulation in RPE,RPE [1],cause cholesterol and ceramide accumulation
O=S(=O)(c1ccccc1)N(CC(F)(F)F)c1ccc(C(O)(C(F)(F)F)C(F)(F)F)cc1 [T0901317],complement-mediated mitochondrial fragmentation in RPE,RPE [2],protect
same,lipofuscin-induced cholesterol accumulation in the RPE,RPE [1]; [13],decreased
CCN(CC)CCO[C@H]1CC[C@@]2(C)C(=CC[C@@H]3[C@@H]2CC[C@]2(C)C(=O)CC[C@@H]32)C1 [U18666A],cytosolic and nuclear calcium at baseline,primary porcine RPE,prolonged cytosolic and nuclear calcium even at baseline
same,calcium levels after Yoda1 treatment,"primary porcine RPE; RPE+U18 versus control RPE, where they returned to baseline within minutes",remained high in all cellular compartments
same,cholesterol and ceramide in RPE,RPE [3],increased
same,cholesterol and ceramide accumulation in RPE,RPE [1],cause cholesterol and ceramide accumulation
Clc1cccc(Cl)c1CSc1nnc(-c2cnccn2)s1 [Yoda1],calcium influx in the RPE,"primary porcine RPE; 25 μM, 1 min, RPE on collagen, live imaging",induces a rapid nuclear calcium influx within seconds
same,intracellular calcium spikes in RPE cultured on silica beads,primary porcine RPE,further potentiated
same,calcium influx in freshly isolated RPE flatmounts,[4],increased calcium influx
same,nuclear H3K9me3,primary polarized RPE [5],loss of nuclear H3K9me3
same,mitochondrial fragmentation,primary polarized RPE [6],mitochondrial fragmentation
same,actin accumulation at cell-cell junctions,[7],caused rapid actin accumulation at cell-cell junctions
same,actin intensity in RPE flatmounts,[8],increased actin intensity
same,EC50,Piezo1 [9],10 to 20 µM
same,activation of Piezo2,Piezo2,does not activate Piezo2
CNCCCN1c2ccccc2CCc2ccccc21 [desipramine],complement-mediated mitochondrial fragmentation in RPE,RPE [2],protect
same,nuclear H3K9me3 in the RPE,Abca4−/− mice,restored nuclear H3K9me3
same,lipofuscin-induced ceramide accumulation in the RPE,RPE [1]; [13],decreased
"GsMTx4-L: L enantiomeric form of GsMTx4 (GCLEFWWKCNPNDDKCCRPKLKCSKLFKLCNFSF; ends and bridges not checked; cysteine pairing not given here; UniProt Q7YT39 47-80, looked up)","effectiveness at blocking Piezo1 activation, L- versus D-enantiomer",Piezo1 [10],equally effective
GsMTx-4,intracellular calcium spikes in RPE cultured on silica beads,primary porcine RPE,decreased
same,mitochondrial fragmentation,primary polarized RPE [6],protected RPE mitochondria
same,actin accumulation at cell-cell junctions,[7],prevented
same,Kd,Piezo1 [11],155 to 2000 nM
cyclodextrin,peak current amplitudes of Piezo1 currents,Piezo1 [12],drastically decreased
